Experiments:
Test in all cases: KINOMEscan competition binding
Details in all cases: compound 10.0 µM
AAK1 (human) = AAK1 (human) (UniProt Q2M2I8)
[1] = system: ABL1 (human), P00519 [Y253F]
AKT1 (human) = AKT1 (human) (UniProt P31749)
BMPR2 (human) = BMPR2 (human) (UniProt Q13873)
CAMK2D (human) = CAMK2D (human) (UniProt Q13557)
CDK19 (human) = CDK19 (human) (UniProt Q9BWU1)
CDK2 (human) = CDK2 (human) (UniProt P24941)
CDK5 (human) = CDK5 (human) (UniProt Q00535)
CDK8 (human) = CDK8 (human) (UniProt P49336)
CDK9 (human) = CDK9 (human) (UniProt P50750)
CLK2 (human) = CLK2 (human) (UniProt P49760)
CSNK1G2 (human) = CSNK1G2 (human) (UniProt P78368)
DYRK2 (human) = DYRK2 (human) (UniProt Q92630)
EPHB1 (human) = EPHB1 (human) (UniProt P54762)
GSK3B (human) = GSK3B (human) (UniProt P49841)
HUNK (human) = HUNK (human) (UniProt P57058)
IGF1R (human) = IGF1R (human) (UniProt P08069)
IKBKE (human) = IKBKE (human) (UniProt Q14164)
MAP3K12 (human) = MAP3K12 (human) (UniProt Q12852)
MAP3K15 (human) = MAP3K15 (human) (UniProt Q6ZN16)
MAPK3 (human) = MAPK3 (human) (UniProt P27361)
MARK4 (human) = MARK4 (human) (UniProt Q96L34)
MST1R (human) = MST1R (human) (UniProt Q04912)
MYLK4 (human) = MYLK4 (human) (UniProt Q86YV6)
NEK11 (human) = NEK11 (human) (UniProt Q8NG66)
NEK9 (human) = NEK9 (human) (UniProt Q8TD19)
PI4KB (human) = PI4KB (human) (UniProt Q9UBF8)
PIK3CB (human) = PIK3CB (human) (UniProt P42338)
PRKCD (human) = PRKCD (human) (UniProt Q05655)
PRKCE (human) = PRKCE (human) (UniProt Q02156)
PRKD1 (human) = PRKD1 (human) (UniProt Q15139)
PRKD2 (human) = PRKD2 (human) (UniProt Q9BZL6)
PRKG2 (human) = PRKG2 (human) (UniProt Q13237)
PTK2B (human) = PTK2B (human) (UniProt Q14289)
RAF1 (human) = RAF1 (human) (UniProt P04049)
RIOK1 (human) = RIOK1 (human) (UniProt Q9BRS2)
STK36 (human) = STK36 (human) (UniProt Q9NRP7)
TEC (human) = TEC (human) (UniProt P42680)
TRPM6 (human) = TRPM6 (human) (UniProt Q9BX84)
ULK1 (human) = ULK1 (human) (UniProt O75385)

Chain of AKT1 (human) (P31749 whole entry, looked up): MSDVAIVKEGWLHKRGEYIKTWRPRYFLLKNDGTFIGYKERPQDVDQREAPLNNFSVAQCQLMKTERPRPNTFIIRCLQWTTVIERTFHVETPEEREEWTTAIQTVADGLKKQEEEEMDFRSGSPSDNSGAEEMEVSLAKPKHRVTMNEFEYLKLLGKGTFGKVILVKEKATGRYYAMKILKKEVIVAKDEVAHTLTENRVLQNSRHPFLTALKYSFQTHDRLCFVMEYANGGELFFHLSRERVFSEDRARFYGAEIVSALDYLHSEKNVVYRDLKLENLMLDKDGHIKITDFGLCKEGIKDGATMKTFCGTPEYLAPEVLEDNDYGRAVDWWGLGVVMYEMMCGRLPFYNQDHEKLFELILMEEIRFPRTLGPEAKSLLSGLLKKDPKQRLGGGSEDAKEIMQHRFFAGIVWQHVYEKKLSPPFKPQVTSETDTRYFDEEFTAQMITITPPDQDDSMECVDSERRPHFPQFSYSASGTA
Chain of NEK9 (human) (Q8TD19 whole entry, looked up): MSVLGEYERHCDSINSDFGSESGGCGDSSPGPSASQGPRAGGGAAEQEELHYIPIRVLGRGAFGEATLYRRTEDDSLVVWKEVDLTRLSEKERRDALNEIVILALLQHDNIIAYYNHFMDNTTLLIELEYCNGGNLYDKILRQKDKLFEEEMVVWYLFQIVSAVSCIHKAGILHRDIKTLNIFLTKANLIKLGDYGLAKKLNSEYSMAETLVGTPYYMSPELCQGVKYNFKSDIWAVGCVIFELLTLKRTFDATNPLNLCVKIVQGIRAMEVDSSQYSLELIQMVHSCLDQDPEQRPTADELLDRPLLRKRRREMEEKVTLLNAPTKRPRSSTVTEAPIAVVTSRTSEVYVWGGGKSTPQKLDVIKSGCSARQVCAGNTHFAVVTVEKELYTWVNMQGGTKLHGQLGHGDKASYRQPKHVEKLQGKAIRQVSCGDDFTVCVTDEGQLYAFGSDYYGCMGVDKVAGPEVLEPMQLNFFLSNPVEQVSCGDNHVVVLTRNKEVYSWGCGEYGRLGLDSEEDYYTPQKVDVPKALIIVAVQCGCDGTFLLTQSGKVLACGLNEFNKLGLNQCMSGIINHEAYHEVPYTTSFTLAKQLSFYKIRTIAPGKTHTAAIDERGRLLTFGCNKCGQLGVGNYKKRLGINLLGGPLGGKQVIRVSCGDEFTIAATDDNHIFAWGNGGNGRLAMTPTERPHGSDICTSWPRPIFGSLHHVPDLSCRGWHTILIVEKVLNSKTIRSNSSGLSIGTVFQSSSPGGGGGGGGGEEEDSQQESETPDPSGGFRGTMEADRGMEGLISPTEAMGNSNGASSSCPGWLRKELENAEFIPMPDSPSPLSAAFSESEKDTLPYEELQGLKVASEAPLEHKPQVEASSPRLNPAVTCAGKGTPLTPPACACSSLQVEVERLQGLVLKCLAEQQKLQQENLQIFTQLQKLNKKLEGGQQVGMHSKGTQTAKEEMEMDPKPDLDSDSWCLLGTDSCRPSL
Chain of CDK8 (human) (P49336 whole entry, looked up): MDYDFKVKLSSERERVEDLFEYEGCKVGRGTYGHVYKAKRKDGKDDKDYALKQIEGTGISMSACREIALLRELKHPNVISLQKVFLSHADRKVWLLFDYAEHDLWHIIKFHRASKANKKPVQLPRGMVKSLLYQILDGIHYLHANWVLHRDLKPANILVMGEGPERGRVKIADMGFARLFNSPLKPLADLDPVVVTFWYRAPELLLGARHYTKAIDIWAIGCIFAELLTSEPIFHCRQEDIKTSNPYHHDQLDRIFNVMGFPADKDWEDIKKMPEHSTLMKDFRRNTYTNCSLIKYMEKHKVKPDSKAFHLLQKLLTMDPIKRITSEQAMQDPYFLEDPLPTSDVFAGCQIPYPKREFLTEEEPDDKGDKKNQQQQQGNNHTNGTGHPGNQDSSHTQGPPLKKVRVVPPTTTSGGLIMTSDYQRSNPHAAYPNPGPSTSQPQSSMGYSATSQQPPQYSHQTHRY
Chain of HUNK (human) (P57058 whole entry, looked up): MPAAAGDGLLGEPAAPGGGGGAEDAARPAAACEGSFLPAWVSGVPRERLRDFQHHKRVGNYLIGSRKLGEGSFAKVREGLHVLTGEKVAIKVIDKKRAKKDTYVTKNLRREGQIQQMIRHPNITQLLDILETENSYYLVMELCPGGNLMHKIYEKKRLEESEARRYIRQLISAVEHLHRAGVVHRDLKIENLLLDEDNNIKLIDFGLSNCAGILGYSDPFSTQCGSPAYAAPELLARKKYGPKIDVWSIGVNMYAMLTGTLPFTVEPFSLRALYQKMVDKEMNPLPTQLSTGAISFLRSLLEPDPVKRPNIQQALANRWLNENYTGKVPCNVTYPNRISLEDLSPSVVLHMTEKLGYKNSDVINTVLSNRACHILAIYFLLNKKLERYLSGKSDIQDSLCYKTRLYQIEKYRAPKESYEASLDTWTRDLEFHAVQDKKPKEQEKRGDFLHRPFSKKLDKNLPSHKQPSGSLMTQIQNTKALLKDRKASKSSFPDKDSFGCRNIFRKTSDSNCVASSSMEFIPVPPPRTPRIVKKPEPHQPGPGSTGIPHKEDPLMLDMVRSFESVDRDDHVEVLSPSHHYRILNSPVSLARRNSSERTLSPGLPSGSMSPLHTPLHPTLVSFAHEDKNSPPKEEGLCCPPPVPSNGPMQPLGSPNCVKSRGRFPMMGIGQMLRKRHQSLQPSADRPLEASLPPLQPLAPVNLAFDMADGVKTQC
Chain of BMPR2 (human) (Q13873 whole entry, looked up): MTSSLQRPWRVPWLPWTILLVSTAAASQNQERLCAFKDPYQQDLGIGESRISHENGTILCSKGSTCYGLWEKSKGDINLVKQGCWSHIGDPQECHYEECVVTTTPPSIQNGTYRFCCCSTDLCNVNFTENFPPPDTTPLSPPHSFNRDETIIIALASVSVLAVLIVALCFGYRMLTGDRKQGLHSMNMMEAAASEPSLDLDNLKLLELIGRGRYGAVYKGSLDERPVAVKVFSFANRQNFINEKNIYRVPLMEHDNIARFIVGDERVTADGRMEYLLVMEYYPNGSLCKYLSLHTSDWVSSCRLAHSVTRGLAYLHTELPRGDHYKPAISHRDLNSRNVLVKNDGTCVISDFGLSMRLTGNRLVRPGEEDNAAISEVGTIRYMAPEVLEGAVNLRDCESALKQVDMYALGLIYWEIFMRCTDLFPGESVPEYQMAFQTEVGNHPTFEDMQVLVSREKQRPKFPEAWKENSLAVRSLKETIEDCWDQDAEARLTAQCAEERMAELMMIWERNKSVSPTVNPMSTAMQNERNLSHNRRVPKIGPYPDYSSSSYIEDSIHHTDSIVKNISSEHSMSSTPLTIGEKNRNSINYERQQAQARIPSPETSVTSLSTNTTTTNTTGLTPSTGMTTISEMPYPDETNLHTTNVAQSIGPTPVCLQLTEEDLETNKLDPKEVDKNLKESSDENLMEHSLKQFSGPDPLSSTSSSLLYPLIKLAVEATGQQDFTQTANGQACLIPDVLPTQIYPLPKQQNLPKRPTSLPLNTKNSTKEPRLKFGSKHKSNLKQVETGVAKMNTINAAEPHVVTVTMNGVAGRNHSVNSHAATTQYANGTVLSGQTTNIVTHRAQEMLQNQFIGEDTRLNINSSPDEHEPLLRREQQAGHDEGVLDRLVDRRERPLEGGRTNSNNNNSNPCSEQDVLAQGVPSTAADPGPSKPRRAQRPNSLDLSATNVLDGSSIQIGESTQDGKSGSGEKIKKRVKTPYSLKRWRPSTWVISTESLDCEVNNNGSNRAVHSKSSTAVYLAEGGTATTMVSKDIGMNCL
Chain of MYLK4 (human) (Q86YV6 whole entry, looked up): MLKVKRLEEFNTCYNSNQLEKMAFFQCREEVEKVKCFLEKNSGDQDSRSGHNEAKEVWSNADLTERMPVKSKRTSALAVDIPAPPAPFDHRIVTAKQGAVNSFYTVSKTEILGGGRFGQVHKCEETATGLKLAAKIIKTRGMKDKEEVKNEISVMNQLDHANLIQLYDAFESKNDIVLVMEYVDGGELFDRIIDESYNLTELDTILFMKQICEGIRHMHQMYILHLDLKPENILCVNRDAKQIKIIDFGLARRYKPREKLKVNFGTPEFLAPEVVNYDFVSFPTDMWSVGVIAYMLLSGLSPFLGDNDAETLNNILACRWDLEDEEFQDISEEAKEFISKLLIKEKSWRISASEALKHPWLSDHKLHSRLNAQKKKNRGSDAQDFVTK
Chain of RAF1 (human) (P04049 whole entry, looked up): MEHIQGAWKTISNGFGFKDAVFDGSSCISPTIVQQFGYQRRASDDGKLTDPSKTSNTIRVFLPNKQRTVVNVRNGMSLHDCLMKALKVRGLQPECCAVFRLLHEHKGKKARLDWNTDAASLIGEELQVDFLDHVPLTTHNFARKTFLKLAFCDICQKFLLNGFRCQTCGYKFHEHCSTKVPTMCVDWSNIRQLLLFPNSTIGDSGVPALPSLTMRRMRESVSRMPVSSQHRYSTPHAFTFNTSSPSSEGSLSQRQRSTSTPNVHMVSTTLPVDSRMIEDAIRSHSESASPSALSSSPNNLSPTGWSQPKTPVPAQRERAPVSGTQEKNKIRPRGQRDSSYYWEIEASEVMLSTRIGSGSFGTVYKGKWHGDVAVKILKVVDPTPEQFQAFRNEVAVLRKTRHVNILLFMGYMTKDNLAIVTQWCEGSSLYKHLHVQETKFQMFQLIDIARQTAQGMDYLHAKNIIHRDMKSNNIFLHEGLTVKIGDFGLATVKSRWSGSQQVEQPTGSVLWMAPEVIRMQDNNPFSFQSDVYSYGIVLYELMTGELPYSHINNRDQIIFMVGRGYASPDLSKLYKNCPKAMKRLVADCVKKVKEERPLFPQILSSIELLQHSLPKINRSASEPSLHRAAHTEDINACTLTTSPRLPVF
Chain of CDK5 (human) (Q00535 whole entry, looked up): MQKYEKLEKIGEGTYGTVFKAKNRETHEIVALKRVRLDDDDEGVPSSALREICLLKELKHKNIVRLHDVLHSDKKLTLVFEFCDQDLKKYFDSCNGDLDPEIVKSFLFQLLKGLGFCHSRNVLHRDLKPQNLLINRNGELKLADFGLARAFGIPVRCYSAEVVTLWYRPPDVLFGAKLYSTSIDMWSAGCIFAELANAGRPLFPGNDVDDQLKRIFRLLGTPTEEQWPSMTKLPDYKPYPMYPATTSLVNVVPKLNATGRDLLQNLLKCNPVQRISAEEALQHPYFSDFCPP

C=CC(=O)Nc1cc(-n2c(=O)ccc3cnc4ccc(-c5cn[nH]c5)cc4c32)ccc1C showed a kinase still bound, per cent of control (AAK1 (human)) of 18%, a kinase still bound, per cent of control [1] of 71% and a kinase still bound, per cent of control (AKT1 (human)) of 89%. For the same molecule, the kinase still bound, per cent of control (BMPR2 (human)) was 4.6%, the kinase still bound, per cent of control (CAMK2D (human)) was 36% and the kinase still bound, per cent of control (CDK19 (human)) was 100%. The kinase still bound, per cent of control (CDK2 (human)) was 84%, the kinase still bound, per cent of control (CDK5 (human)) was 84% and the kinase still bound, per cent of control (CDK8 (human)) was 93%. It also gave a kinase still bound, per cent of control (CDK9 (human)) of 100%, a kinase still bound, per cent of control (CLK2 (human)) of 1.6% and a kinase still bound, per cent of control (CSNK1G2 (human)) of 94%. For the same molecule, the kinase still bound, per cent of control (DYRK2 (human)) was 0.6%, the kinase still bound, per cent of control (EPHB1 (human)) was 94% and the kinase still bound, per cent of control (GSK3B (human)) was 84%. The kinase still bound, per cent of control (HUNK (human)) was 86%, the kinase still bound, per cent of control (IGF1R (human)) was 100% and the kinase still bound, per cent of control (IKBKE (human)) was 100%. For the same molecule, the kinase still bound, per cent of control (MAP3K12 (human)) was 76%, the kinase still bound, per cent of control (MAP3K15 (human)) was 56% and the kinase still bound, per cent of control (MAPK3 (human)) was 100%. It also gave a kinase still bound, per cent of control (MARK4 (human)) of 64%, a kinase still bound, per cent of control (MST1R (human)) of 99% and a kinase still bound, per cent of control (MYLK4 (human)) of 88%. The kinase still bound, per cent of control (NEK11 (human)) was 100%, the kinase still bound, per cent of control (NEK9 (human)) was 100% and the kinase still bound, per cent of control (PI4KB (human)) was 2.3%. For the same molecule, the kinase still bound, per cent of control (PIK3CB (human)) was 62%, the kinase still bound, per cent of control (PRKCD (human)) was 80% and the kinase still bound, per cent of control (PRKCE (human)) was 100%. It also gave a kinase still bound, per cent of control (PRKD1 (human)) of 100%, a kinase still bound, per cent of control (PRKD2 (human)) of 89% and a kinase still bound, per cent of control (PRKG2 (human)) of 78%. It also gave a kinase still bound, per cent of control (PTK2B (human)) of 96%, a kinase still bound, per cent of control (RAF1 (human)) of 100% and a kinase still bound, per cent of control (RIOK1 (human)) of 53%. The kinase still bound, per cent of control (STK36 (human)) was 79%, the kinase still bound, per cent of control (TEC (human)) was 6% and the kinase still bound, per cent of control (TRPM6 (human)) was 71%. The kinase still bound, per cent of control (ULK1 (human)) was 87%.

COc1cc2ncn(-c3cc(OCc4ccccc4C(F)(F)F)c(C(N)=O)s3)c2cc1OC gave a kinase still bound, per cent of control (AAK1 (human)) of 28%, a kinase still bound, per cent of control [1] of 88% and a kinase still bound, per cent of control (AKT1 (human)) of 100%. It also gave a kinase still bound, per cent of control (BMPR2 (human)) of 69%, a kinase still bound, per cent of control (CAMK2D (human)) of 75% and a kinase still bound, per cent of control (CDK19 (human)) of 100%. The kinase still bound, per cent of control (CDK2 (human)) was 73%, the kinase still bound, per cent of control (CDK5 (human)) was 100% and the kinase still bound, per cent of control (CDK8 (human)) was 94%. For the same molecule, the kinase still bound, per cent of control (CDK9 (human)) was 100%, the kinase still bound, per cent of control (CLK2 (human)) was 47% and the kinase still bound, per cent of control (CSNK1G2 (human)) was 100%. It also gave a kinase still bound, per cent of control (DYRK2 (human)) of 37%, a kinase still bound, per cent of control (EPHB1 (human)) of 96% and a kinase still bound, per cent of control (GSK3B (human)) of 100%. The kinase still bound, per cent of control (HUNK (human)) was 82%, the kinase still bound, per cent of control (IGF1R (human)) was 100% and the kinase still bound, per cent of control (IKBKE (human)) was 60%. The kinase still bound, per cent of control (MAP3K12 (human)) was 68%, the kinase still bound, per cent of control (MAP3K15 (human)) was 63% and the kinase still bound, per cent of control (MAPK3 (human)) was 100%. For the same molecule, the kinase still bound, per cent of control (MARK4 (human)) was 99%, the kinase still bound, per cent of control (MST1R (human)) was 100% and the kinase still bound, per cent of control (MYLK4 (human)) was 17%. It also gave a kinase still bound, per cent of control (NEK11 (human)) of 100%, a kinase still bound, per cent of control (NEK9 (human)) of 48% and a kinase still bound, per cent of control (PI4KB (human)) of 100%. For the same molecule, the kinase still bound, per cent of control (PIK3CB (human)) was 54%, the kinase still bound, per cent of control (PRKCD (human)) was 100% and the kinase still bound, per cent of control (PRKCE (human)) was 100%. For the same molecule, the kinase still bound, per cent of control (PRKD1 (human)) was 100%, the kinase still bound, per cent of control (PRKD2 (human)) was 100% and the kinase still bound, per cent of control (PRKG2 (human)) was 86%. It also gave a kinase still bound, per cent of control (PTK2B (human)) of 72%, a kinase still bound, per cent of control (RAF1 (human)) of 87% and a kinase still bound, per cent of control (RIOK1 (human)) of 4.1%. For the same molecule, the kinase still bound, per cent of control (STK36 (human)) was 76%, the kinase still bound, per cent of control (TEC (human)) was 94% and the kinase still bound, per cent of control (TRPM6 (human)) was 100%. It also gave a kinase still bound, per cent of control (ULK1 (human)) of 92%.

NC(=O)Nc1cc(-c2cccc(F)c2)sc1C(=O)N[C@@H]1CCCNC1 gave a kinase still bound, per cent of control (AAK1 (human)) of 1.3%, a kinase still bound, per cent of control [1] of 0% and a kinase still bound, per cent of control (AKT1 (human)) of 3.2%. It also gave a kinase still bound, per cent of control (BMPR2 (human)) of 3.4%, a kinase still bound, per cent of control (CAMK2D (human)) of 6.7% and a kinase still bound, per cent of control (CDK19 (human)) of 100%. For the same molecule, the kinase still bound, per cent of control (CDK2 (human)) was 93%, the kinase still bound, per cent of control (CDK5 (human)) was 100% and the kinase still bound, per cent of control (CDK8 (human)) was 71%. The kinase still bound, per cent of control (CDK9 (human)) was 88%, the kinase still bound, per cent of control (CLK2 (human)) was 0.65% and the kinase still bound, per cent of control (CSNK1G2 (human)) was 0.95%. It also gave a kinase still bound, per cent of control (DYRK2 (human)) of 26%, a kinase still bound, per cent of control (EPHB1 (human)) of 1.6% and a kinase still bound, per cent of control (GSK3B (human)) of 41%. It also gave a kinase still bound, per cent of control (HUNK (human)) of 68%, a kinase still bound, per cent of control (IGF1R (human)) of 44% and a kinase still bound, per cent of control (IKBKE (human)) of 3.6%. The kinase still bound, per cent of control (MAP3K12 (human)) was 9.7%, the kinase still bound, per cent of control (MAP3K15 (human)) was 28% and the kinase still bound, per cent of control (MAPK3 (human)) was 91%. It also gave a kinase still bound, per cent of control (MARK4 (human)) of 2.2%, a kinase still bound, per cent of control (MST1R (human)) of 12% and a kinase still bound, per cent of control (MYLK4 (human)) of 51%. For the same molecule, the kinase still bound, per cent of control (NEK11 (human)) was 100%, the kinase still bound, per cent of control (NEK9 (human)) was 80% and the kinase still bound, per cent of control (PI4KB (human)) was 100%. The kinase still bound, per cent of control (PIK3CB (human)) was 68%, the kinase still bound, per cent of control (PRKCD (human)) was 0.65% and the kinase still bound, per cent of control (PRKCE (human)) was 14%. It also gave a kinase still bound, per cent of control (PRKD1 (human)) of 0.3%, a kinase still bound, per cent of control (PRKD2 (human)) of 0.9% and a kinase still bound, per cent of control (PRKG2 (human)) of 0.5%. The kinase still bound, per cent of control (PTK2B (human)) was 0.6%, the kinase still bound, per cent of control (RAF1 (human)) was 100% and the kinase still bound, per cent of control (RIOK1 (human)) was 0.4%. The kinase still bound, per cent of control (STK36 (human)) was 74%, the kinase still bound, per cent of control (TEC (human)) was 0.4% and the kinase still bound, per cent of control (TRPM6 (human)) was 74%. It also gave a kinase still bound, per cent of control (ULK1 (human)) of 0%.
